Results from patent US20250313560A1, “Novel bicyclic benzylamido pyridine derivatives as SOS1 inhibitors” (Boehringer Ingelheim International GmbH, priority 2024, published 2025).

What was measured:
human hepatocytes = test: Metabolic stability in human hepatocytes; details: 1 μM test compound, 50% human serum, percentage of liver blood flow
[1] = test system: ERK phosphorylation in NCI-H358 SOS2 KO cells (KRAS G12C); test: Erk phosphorylation assay; format: cell-based, human; details: Homo sapiens, NCI-H358, NCI-H358 SOS2 KO cells, EGF stimulated; average of at least two measurements; read-out: pERK IC50
Method in brief: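 NCI-H358 SOS2 KO cells (KRAS G12C) in DMEM/2% FBS were pretreated 50 min with compound, then stimulated with EGF (approx. 8 ng/mL) for 10-15 min. pERK1/2 (Thr202/Tyr204) measured in lysates by AlphaLISA SureFire; IC50 from variable-slope fit, averaged over at least two measurements.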

P450 3A4 = P450 3A4 (Homo sapiens (Human), UniProt P08684); test: Cytochrome P450 isoenzyme inhibition assay (P450 3A4, midazolam); format: in vitro ADME; details: human liver microsomes, Midazolam as substrate; read-out: CYP3A4 inhibition IC50
Method in brief: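 Midazolam (5 μM) hydroxylation by human liver microsomes (0.1 mg/ml) in 0.1 M TRIS with 5 mM MgCl2, started with 1 mM NADPH. Five compound concentrations in duplicate, e.g. top 50 μM with 1:4 dilutions. Metabolite quantified by LC-MS/MS against internal standard; IC50 from inhibition relative to no-compound control.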

SOS1 and KRAS G12C = SOS1 and KRAS G12C (Homo sapiens (Human), UniProt Q07889); test: KRAS::SOS1 AlphaScreen binding assay (KRAS G12C); details: average of at least two measurements
SOS1 and KRAS G12D = SOS1 and KRAS G12D (Homo sapiens (Human), UniProt Q07889); test: KRAS::SOS1 AlphaScreen binding assay (KRAS G12D); details: average of at least two measurements
CYP3A4 = CYP3A4 (Homo sapiens (Human), UniProt P08684); test: Mechanism-based inhibition of CYP3A4 assay (MBI 3A4); format: in vitro ADME; details: human, human liver microsomes, probe midazolam 15 μM (hydroxy-midazolam formation), midazolam substrate, hydroxy-midazolam formation after 30 min preincubation relative to 0 min, read-out: MBI inhibition % ctrl. [%] with MDZ
Method in brief: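 Human liver microsomes (0.2 mg/mL) were preincubated with compound at 0, 5 or 25 μM plus 1 mM NADPH for 0, 10 or 30 min, then diluted 1:10 and incubated 10 min with 15 μM midazolam. Hydroxy-midazolam was measured by LC/MS-MS; readout is formation after 30 min relative to 0 min preincubation (%).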

Chain of CYP3A4 (P08684 whole entry): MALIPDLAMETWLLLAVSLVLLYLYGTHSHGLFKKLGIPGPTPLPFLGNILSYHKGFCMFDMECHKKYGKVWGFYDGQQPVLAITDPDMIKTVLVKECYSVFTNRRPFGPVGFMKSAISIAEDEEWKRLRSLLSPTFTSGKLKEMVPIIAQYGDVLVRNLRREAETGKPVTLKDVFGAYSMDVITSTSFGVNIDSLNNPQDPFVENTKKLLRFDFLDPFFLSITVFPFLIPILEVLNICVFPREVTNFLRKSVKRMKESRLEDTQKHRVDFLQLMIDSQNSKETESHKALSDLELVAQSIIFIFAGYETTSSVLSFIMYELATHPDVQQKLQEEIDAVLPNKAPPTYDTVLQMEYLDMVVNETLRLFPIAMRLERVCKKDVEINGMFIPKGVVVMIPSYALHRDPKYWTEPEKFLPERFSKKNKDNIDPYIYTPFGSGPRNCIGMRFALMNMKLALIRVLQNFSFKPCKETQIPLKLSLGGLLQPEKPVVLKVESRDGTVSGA
Chain of P450 3A4 (P08684 whole entry): as above
Chain of SOS1 and KRAS G12C (Q07889 564-1049, stated change not applied): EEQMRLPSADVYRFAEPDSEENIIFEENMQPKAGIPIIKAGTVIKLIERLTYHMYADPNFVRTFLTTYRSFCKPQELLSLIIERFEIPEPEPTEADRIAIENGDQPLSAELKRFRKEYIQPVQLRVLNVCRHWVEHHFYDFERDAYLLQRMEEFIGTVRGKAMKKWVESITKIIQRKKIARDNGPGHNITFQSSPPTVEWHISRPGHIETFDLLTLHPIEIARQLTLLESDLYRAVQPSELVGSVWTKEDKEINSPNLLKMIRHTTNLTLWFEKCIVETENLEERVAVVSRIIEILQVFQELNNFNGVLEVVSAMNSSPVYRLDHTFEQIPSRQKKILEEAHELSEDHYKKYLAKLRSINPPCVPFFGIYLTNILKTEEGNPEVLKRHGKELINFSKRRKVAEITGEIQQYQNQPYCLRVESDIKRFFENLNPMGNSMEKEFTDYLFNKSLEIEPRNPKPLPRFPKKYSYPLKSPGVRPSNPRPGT
Chain of SOS1 and KRAS G12D (Q07889 564-1049, stated change not applied): as above

Q: What does the source list for `C[C@@H](NC(=O)c1cc(N2CCC(N(C)C)CC2)c2ncnn2c1)c1cccc(C(F)(F)F)c1F` [Example E35]?
A: Hepatic clearance - QH[%] in human hepatocytes (human hepatocytes): 6%; IC50 [1]: 0.16 µM; IC50 (P450 3A4): > 50 µM; IC50 (SOS1 and KRAS G12C): 57 nM; IC50 (SOS1 and KRAS G12D): 48 nM; inhibition at 30 min (CYP3A4): 94%

Q: With `C[C@@H](NC(=O)c1cc(N2CCC3(CCNC3)CC2)c2ncnn2c1)c1cccc(C(F)(F)F)c1F` [Example E36] as the compound, how does the “Hepatic clearance - QH[%] in human hepatocytes” value (from here on “Hepatic clearance - QH[%]”) (human hepatocytes) read?
A: Its value is 10%.

Q: And the IC50 [1]?
A: Its IC50 is 0.144 µM.

Q: What about the IC50 (P450 3A4) of the same compound?
A: The IC50 was greater than 50 µM.

Q: And the IC50 (SOS1 and KRAS G12C)?
A: Its IC50 is 28 nM.

Q: What about the IC50 (SOS1 and KRAS G12D) of the same compound?
A: Its IC50 is 22 nM.

Q: And the inhibition at 30 min (CYP3A4)?
A: The inhibition at 30 min was 96%.

Q: For `C[C@@H](NC(=O)c1cc(N2CCC3(CCCN3C)CC2)c2ncnn2c1)c1cccc(C(F)(F)F)c1F` [Example E37], which “Hepatic clearance - QH[%]” value (human hepatocytes) is on record?
A: Its value is 25%.

Q: What about the IC50 [1] of the same compound?
A: Its IC50 is 0.152 µM.

Q: And the IC50 (P450 3A4)?
A: The IC50 was greater than 50 µM.

Q: And the IC50 (SOS1 and KRAS G12C)?
A: Its IC50 is 31 nM.

Q: What about the IC50 (SOS1 and KRAS G12D) of the same compound?
A: Its IC50 is 21 nM.

Q: What about the inhibition at 30 min (CYP3A4) of the same compound?
A: Its inhibition at 30 min is 90%.

Q: How did the “Hepatic clearance - QH[%]” value (human hepatocytes) turn out when `C[C@@H](O)CNC1CCN(c2cc(C(=O)N[C@H](C)c3cccc(C(F)(F)F)c3F)cn3ncnc23)CC1` [Example E39] was run?
A: The value was 43%.

Q: What about the IC50 [1] of the same compound?
A: Its IC50 is 0.251 µM.

Q: What about the IC50 (P450 3A4) of the same compound?
A: Its IC50 is greater than 50 µM.

Q: What about the IC50 (SOS1 and KRAS G12C) of the same compound?
A: Its IC50 is 53 nM.

Q: What about the IC50 (SOS1 and KRAS G12D) of the same compound?
A: The IC50 was 54 nM.

Q: What about the inhibition at 30 min (CYP3A4) of the same compound?
A: The inhibition at 30 min was 75%.

Q: For `C[C@H](O)CNC1CCN(c2cc(C(=O)N[C@H](C)c3cccc(C(F)(F)F)c3F)cn3ncnc23)CC1` [Example E40], which “Hepatic clearance - QH[%]” value (human hepatocytes) is on record?
A: Its value is 22%.

Q: And the IC50 [1]?
A: Its IC50 is 0.277 µM.

Q: And the IC50 (P450 3A4)?
A: The IC50 was greater than 50 µM.

Q: And the IC50 (SOS1 and KRAS G12C)?
A: Its IC50 is 50 nM.

Q: And the IC50 (SOS1 and KRAS G12D)?
A: The IC50 was 53 nM.

Q: And the inhibition at 30 min (CYP3A4)?
A: Its inhibition at 30 min is 75%.

Q: `C[C@@H](NC(=O)c1cc(N2CCC(N3CCC[C@H](O)C3)CC2)c2ncnn2c1)c1cccc(C(F)(F)F)c1F` [Example E44] was tested. Which “Hepatic clearance - QH[%]” value (human hepatocytes) did it give?
A: The value was 16%.

Q: What about the IC50 [1] of the same compound?
A: Its IC50 is 0.058 µM.

Q: And the IC50 (P450 3A4)?
A: Its IC50 is greater than 50 µM.

Q: What about the IC50 (SOS1 and KRAS G12C) of the same compound?
A: The IC50 was 63 nM.

Q: What about the IC50 (SOS1 and KRAS G12D) of the same compound?
A: Its IC50 is 42 nM.

Q: And the inhibition at 30 min (CYP3A4)?
A: Its inhibition at 30 min is 95%.

Q: Which results are given for `C[C@@H](NC(=O)c1cc(N2CCC3(CCCCN3)CC2)c2ncnn2c1)c1cccc(C(F)(F)F)c1F` [Example E45]?
A: Hepatic clearance - QH[%] in human hepatocytes (human hepatocytes): <4%; IC50 [1]: 0.139 µM; IC50 (P450 3A4): > 50 µM; IC50 (SOS1 and KRAS G12C): 33 nM; IC50 (SOS1 and KRAS G12D): 30 nM; inhibition at 30 min (CYP3A4): 97%

Q: How did the “Hepatic clearance - QH[%]” value (human hepatocytes) turn out when `C[C@@H](NC(=O)c1cc(N2CCC3(CCCCN3C)CC2)c2ncnn2c1)c1cccc(C(F)(F)F)c1F` [Example E46] was run?
A: The value was 9%.

Q: And the IC50 [1]?
A: Its IC50 is 0.162 µM.

Q: And the IC50 (P450 3A4)?
A: The IC50 was greater than 50 µM.

Q: And the IC50 (SOS1 and KRAS G12C)?
A: The IC50 was 34 nM.

Q: And the IC50 (SOS1 and KRAS G12D)?
A: The IC50 was 31 nM.

Q: And the inhibition at 30 min (CYP3A4)?
A: Its inhibition at 30 min is 98%.

Q: `C[C@@H](NC(=O)c1cc(N2CCC(N3CCCC3)CC2)c2ncnn2c1)c1cccc(C(F)(F)F)c1F` [Example E48] was tested. Which “Hepatic clearance - QH[%]” value (human hepatocytes) did it give?
A: The value was 27%.

Q: What about the IC50 [1] of the same compound?
A: The IC50 was 0.082 µM.

Q: What about the IC50 (P450 3A4) of the same compound?
A: Its IC50 is greater than 50 µM.

Q: What about the IC50 (SOS1 and KRAS G12C) of the same compound?
A: The IC50 was 69 nM.

Q: And the IC50 (SOS1 and KRAS G12D)?
A: Its IC50 is 60 nM.

Q: What about the inhibition at 30 min (CYP3A4) of the same compound?
A: Its inhibition at 30 min is 92%.

Q: Which results are given for `C[C@@H](NC(=O)c1cc(N2CCC(NCC(C)(C)O)CC2)c2ncnn2c1)c1cccc(C(F)(F)F)c1F` [Example E50]?
A: Hepatic clearance - QH[%] in human hepatocytes (human hepatocytes): 15%; IC50 [1]: 0.22 µM; IC50 (P450 3A4): > 50 µM; IC50 (SOS1 and KRAS G12C): 49 nM; IC50 (SOS1 and KRAS G12D): 42 nM; inhibition at 30 min (CYP3A4): 83%

Q: How did the “Hepatic clearance - QH[%]” value (human hepatocytes) turn out when `C[C@H](CO)NC1CCN(c2cc(C(=O)N[C@H](C)c3cccc(C(F)(F)F)c3F)cn3ncnc23)CC1` [Example E54] was run?
A: The value was 12%.

Q: What about the IC50 [1] of the same compound?
A: Its IC50 is 0.186 µM.

Q: And the IC50 (P450 3A4)?
A: Its IC50 is greater than 50 µM.

Q: What about the IC50 (SOS1 and KRAS G12C) of the same compound?
A: The IC50 was 39 nM.

Q: And the IC50 (SOS1 and KRAS G12D)?
A: The IC50 was 31 nM.

Q: And the inhibition at 30 min (CYP3A4)?
A: The inhibition at 30 min was 85%.

Q: With `C[C@@H](NC(=O)c1cc(N2CCC(N(C)CCO)CC2)c2ncnn2c1)c1cccc(C(F)(F)F)c1F` [Example E55] as the compound, how does the “Hepatic clearance - QH[%]” value (human hepatocytes) read?
A: Its value is less than 4%.

Q: What about the IC50 [1] of the same compound?
A: The IC50 was 0.397 µM.

Q: And the IC50 (P450 3A4)?
A: Its IC50 is greater than 50 µM.

Q: And the IC50 (SOS1 and KRAS G12C)?
A: Its IC50 is 69 nM.

Q: And the IC50 (SOS1 and KRAS G12D)?
A: The IC50 was 54 nM.

Q: And the inhibition at 30 min (CYP3A4)?
A: The inhibition at 30 min was 83%.

Q: With `C[C@@H](NC(=O)c1cc(N2CCC(N3CC[C@@H](O)C3)CC2)c2ncnn2c1)c1cccc(C(F)(F)F)c1F` [Example E57] as the compound, how does the “Hepatic clearance - QH[%]” value (human hepatocytes) read?
A: Its value is 15%.

Q: And the IC50 [1]?
A: The IC50 was 0.149 µM.

Q: What about the IC50 (P450 3A4) of the same compound?
A: The IC50 was greater than 50 µM.

Q: What about the IC50 (SOS1 and KRAS G12C) of the same compound?
A: The IC50 was 65 nM.

Q: And the IC50 (SOS1 and KRAS G12D)?
A: Its IC50 is 52 nM.

Q: And the inhibition at 30 min (CYP3A4)?
A: The inhibition at 30 min was 106%.

Q: `C[C@@H](NC(=O)c1cc([C@H]2CC[C@H](N3CCC[C@@H](O)C3)CC2)c2ncnn2c1)c1cccc(C(F)F)c1F` [Example E58] was tested. Which “Hepatic clearance - QH[%]” value (human hepatocytes) did it give?
A: The value was 15%.

Q: And the IC50 [1]?
A: The IC50 was 0.122 µM.

Q: What about the IC50 (P450 3A4) of the same compound?
A: Its IC50 is greater than 50 µM.

Q: And the IC50 (SOS1 and KRAS G12C)?
A: Its IC50 is 32 nM.

Q: And the IC50 (SOS1 and KRAS G12D)?
A: Its IC50 is 32 nM.

Q: What about the inhibition at 30 min (CYP3A4) of the same compound?
A: Its inhibition at 30 min is 96%.
